The record followed here is ChEMBL document CHEMBL4480443, “Synthesis and biological evaluation of solubilized sulfonamide analogues of the phosphatidylinositol 3-kinase inhibitor ZSTK474” (Bioorg Med Chem, 2019).

Series [1] is described as follows: physchem. To be noted: aqueous medium with DMSO.
The conditions of series [2]: 0.25 h.
A short description of series [3]: physchem. To be noted: buffer.

A value given as a limit tells only on which side of the number the result lay.

Consider `COc1cccc2c1nc(C(F)F)n2-c1nc(N2CCOCC2)nc(N2CCN(S(=O)(=O)CCN(C)C)CC2)n1.Cl`, for which the solubility at 0.25 h in the series “physchem [1]” is 0.024 mg/mL. Take `COc1cccc2c1nc(C(F)F)n2-c1nc(N2CCOCC2)nc(N2CCN(S(C)(=O)=O)CC2)n1`: the solubility entry in series [2] was “Insoluble”. For the compound `COc1cccc2c1nc(C(F)F)n2-c1nc(N2CCOCC2)nc(N2CCN(S(=O)(=O)CCN(C)C)CC2)n1.CS(=O)(=O)O`, the solubility in the series “physchem [3]” was over 0.059 mg/mL.

As usually defined, the solubility is the dissolved amount per volume that the medium holds. The low end stands for a poorly soluble substance, the high end for a readily soluble substance.
